Consider two substances from US20050165225A1, “Novel cytokine isolated from an insect” (priority 2003, published 2005).

Where no end group is shown, it is not given here.

The test system of experiment [1] is hemocytes of a fly (Lucilia cuprina). Put plainly: Hemocyte aggregation assay. The class given is cell-based. Conditions: 10 nM test substance, incubated for about 20 minutes, L. cuprina larval hemocytes, microscopy (FIG. 2). The protocol: Preparation of Hemolymph for Use in Functional Analysis
Blood (hemolymph) was taken from the 3rd instar flies (Lucilia cuprina) after 24 to 36 hours from molting in an anti-coagulant solution (98 mM NaOH, 186 mM NaCl, 17 mM Na2 EDTA and 41 mM citric acid, pH 4.5). Hemolymph was obtained as sediment by centrifuging at 400 g for one minute, suspended in the anti-coagulation solution, incubated at 4° C. for 30 minutes, and subjected to centrifugal separation at 400 g for one minute to collect hemolymph. The hemolymph thus collected was resuspended in Ex-cell 400 medium (manufactured by JRH bioscience, USA)
Using hemolymph prepared above, an ability of a peptide according to the present invention for aggregating hemocytes was evaluated. 5 μl of a test substance (so as to obtain a final concentration of 10 nM) and 30 μl of a blood cell suspension solution were delivered to 96 wells of a culture plate so as to obtain a cell concentration of 1×10^4 cells/well. As the test substance, a peptide according to the present invention (a final concentration of 10 nM) or bovine serum albumin (a final concentration of 10 nM) as a control was used. The mixture was observed by an inverted phase-contrast microscope (Olympus IX-70) to detect hemocyte aggregation.

Experiment [2] deals with High five cells. Put plainly: Cell proliferation assay ([3H] thymidine incorporation). The format is cell-based, Trichoplusia ni. To be noted: serum-free Grace's medium, test substance ~1,000 nM, cultured 32 hours (FIG. 3). As for the experimental part: Cultured insect cells of “High five” was purchased from Invitrogen (Holland) and maintained in Grace's medium containing 5% fetus bovine serum. The cells during the exponential growth period were used in the following treatment. After the cells were cultured in a culture solution containing only Grace's medium (with no fetus bovine serum) for 2 days, they were divided into two groups. To one group (novel cytokine group), a peptide according to the present invention was added as a test substance in an amount of ˜1,000 nM. To the other group (control group), bovine serum albumin (BSA) was added as a test substance in an amount of ˜1000 nM. Both groups were cultured for 32 hours in Grace's medium containing 0.5 μCi of [^3H] thymidine. Subsequently, Both groups of cells were washed three times with a phosphate buffered saline (8 mM Na2HPO4, 1.5 mM KH2PO4, 137 mM NaCl, 2.7 mM KCL, pH 7.2). Thereafter, 100 μl of 0.3 N NaOH was added to both groups of cells to lyse the cells. The lysed cells were subjected to the liquid scintillation counter (Aloka LSC-5100 manufactured by Aloka, Japan). In this way, the radioactive count of [^3H] thymidine, which had been incorporated in the cells of each group during culturing, was determined.

For the substance “TILSAPSNCQQTDFKGRCL (cysteine pairing not given here) [19-residue peptide cytokine purified from hemolymph of Lucilia cuprina larvae]”, the hemocyte aggregation entry in experiment [1] is given as “hemocyte aggregation is observed”. Also, in experiment [2], the “[^3H] thymidine incorporation” value is listed as “increased in a pepetide-concentration dependent manner”.
The corresponding values for “bovine serum albumin (BSA): bovine serum albumin used as a control test substance” are “scattered without causing aggregation” and “not increased”.
